A value given as a limit tells only on which side of the number the result lay.

The target in one assay is LC3B (Homo sapiens, UniProt Q9GZQ8). Description: Fluorescence Polarization (FP) Assay: displacement of FITC-labeled peptide from GST-LC3B.
Conditions: not given
It counts as binding. As for the experimental part: The compounds of the present invention for regulating the autophagy-related protein LC3B were tested by Fluorescence Polarization (FP) Assay.
Fluorescence Polarization (FP) Assay Test
(In fluorescence polarisation assays a small probe gives low polarisation when free and higher when bound to something large.)
In general, IC50 refers to the concentration that gives 50% inhibition. Turning to `CN(C)CCNC=C1C(=O)CC(c2cccc(Cl)c2F)CC1=O` (stereo not shown) [Compound 384, 5-(3-chloro-2-fluorophenyl)-2-(((2-(dimethylamino)ethyl)amino)methylene) cyclohexane-1,3-dione], the IC50 was less than 3 µM.
As for `COc1ccc(C2CC(=O)C(=CNCCN(C)C)C(=O)C2)c(F)c1F` (stereo not shown) [Compound 403, 5-(2,3-difluoro-4-methoxyphenyl)-2-(((2-(dimethylamino)ethyl)amino)methylene) cyclohexane-1,3-dione], the half-maximal inhibitory concentration (IC50) is less than 3 µM.
On the same count and under the same terms, with `CN(C)CCNC=C1C(=O)CC(c2cccc(F)c2Cl)CC1=O` (stereo not shown) [Compound 410] the figure was less than 3 µM.

Staying with this assay, now noted: Fluorescence Polarization assay; GST-LC3B 180 nM, FITC-labeled peptide 18 nM, 25° C.; read-out: IC50.
On to `Cc1ccc(NC(=O)C2CC(=O)C(=CNCCN(C)C)C(=O)C2)cc1F` (stereo not shown) [Compound 380, 4-(((2-(dimethylamino)ethyl)amino)methylene)-N-(3-fluoro-4-methylphenyl)-3,5-dioxocyclohexane-1-carboxamide], for which the IC50 was 3 to 15 µM.
Turning to `CN(C)CCNC=C1C(=O)CC(c2cc(C(F)(F)F)ccc2Cl)CC1=O` (stereo not shown) [Compound 381, 5-(2-chloro-5-(trifluoromethyl)phenyl)-2-(((2-(dimethylamino)ethyl)amino)methylene) cyclohexane-1,3-dione], the IC50 is less than 3 µM.
For `CN(C)CCNC=C1C(=O)CC(c2ccc(Cl)cc2F)CC1=O` (stereo not shown) [Compound 382, 5-(4-chloro-2-fluorophenyl)-2-(((2-(dimethylamino)ethyl)amino)methylene) cyclohexane-1,3-dione], the IC50 was less than 3 µM.
With `CN(C)CCNC=C1C(=O)CC(c2c(F)cccc2F)CC1=O` (stereo not shown) [Compound 383, 5-(2,6-difluorophenyl)-2-(((2-(dimethylamino)ethyl)amino)methylene) cyclohexane-1,3-dione], the IC50 was less than 3 µM.
The same measure, in the same setting: for `CN(C)CCNC=C1C(=O)CC(c2ccccc2N)CC1=O` (stereo not shown) [Compound 386, 5-(2-aminophenyl)-2-(((2-(dimethylamino)ethyl)amino)methylene) cyclohexane-1,3-dione] the value was less than 3 µM.
`O=C1CC(c2cccc(F)c2F)CC(=O)C1=CNCCN1CCN(CCO)CC1` (stereo not shown) [Compound 387, 5-(2,3-difluorophenyl)-2-(((2-(4-(2-ethoxyl)piperazin-1-yl)ethyl)amino)methylene) cyclohexane-1,3-dione]: the IC50 was less than 3 µM.
In the case of `CN(C)CCNC=C1C(=O)CC(c2cscc2Br)CC1=O` (stereo not shown) [Compound 388, 5-(4-bromothiophen-3-yl)-2-(((2-(dimethylamino)ethyl)amino)methylene) cyclohexane-1,3-dione], the IC50 is less than 3 µM.
As to `CN(C)CCNC=C1C(=O)CC(C(=O)Nc2ccc(-c3ccccc3)cc2)CC1=O` (stereo not shown) [Compound 389], the 50% inhibitory concentration (IC50) is less than 3 µM.
As to `CN(C)CCNC=C1C(=O)CC(c2cc(Cl)ccc2F)CC1=O` (stereo not shown) [Compound 390, 5-(5-chloro-2-fluorophenyl)-2-(((2-(dimethylamino)ethyl)amino)methylene) cyclohexane-1,3-dione], the IC50 was less than 3 µM.
Same read-out and setting: for `O=C1CC(C(O)c2ccccc2)C(=O)/C1=C\NCCN1CCN(CCO)CC1` (stereo not shown) [Compound 391, 4-(hydroxy(phenyl)methyl)-2-(((2-(4-(2-ethoxyl)piperazin-1-yl)ethyl)amino)methylene) cyclopentane-1,3-dione] the value was 15 to 100 µM; for `O=C1CC(c2cc3[nH]ccc3cc2Br)CC(=O)C1=CNCCN1CCN(CCO)CC1` (stereo not shown) [Compound 392, 5-(5-bromo-1H -indol-6-yl)-2-(((2-(4-(2-ethoxyl)piperazin-1-yl)ethyl)amino)methylene) cyclohexane-1,3-dione], less than 3 µM.
As to `O=C1CC(c2c[nH]c3cccc(Cl)c23)CC(=O)C1=CNCCN1CCN(CCO)CC1` (stereo not shown) [Compound 394, 5-(4-chloro-1H-indol-3-yl)-2-(((2-(4-(2-ethoxyl)piperazin-1-yl)ethyl)amino)methylene) cyclohexane-1,3-dione], the IC50 is less than 3 µM.
Take `CCN(CC)CCCC(C)N/C=C1\C(=O)Nc2cc(Cl)ccc2C1=O` (stereo not shown) [Compound 395, 7-chloro-3-(((5-(diethylamino)penta-2-yl)amino)methylene) quinoline-2,4 (1H,3H)-dione]: the 50% inhibitory concentration (IC50) was in the range of 3 to 15 µM.
On to `CN(C)CCNC=C1C(=O)CC(c2c(Cl)ccc(Cl)c2Cl)CC1=O` (stereo not shown) [Compound 397, 2-(((2-(dimethylamino)ethyl)amino)methylene)-5-(2,3,6-trichlorophenyl) cyclohexane-1,3-dione], for which the IC50 was less than 3 µM.
As for `CN(C)CCNC=C1C(=O)CC(c2c(Cl)ccc(F)c2F)CC1=O` (stereo not shown) [Compound 398, 5-(6-chloro-2,3-difluorophenyl)-2-(((2-(dimethylamino)ethyl)amino)methylene) cyclohexane-1,3-dione], the IC50 is less than 3 µM.
On the same count and under the same terms, with `O=C1CC(c2cccc(Cl)c2Cl)CC(=O)C1=CNCCN1CCN(CCO)CC1` (stereo not shown) [Compound 400, 5-(2,3-dichlorophenyl)-2-(((2-(4-(2-ethoxyl)piperazin-1-yl)ethyl)amino)methylene) cyclohexane-1,3-dione] the figure was less than 3 µM; with `CN(C)CCNC=C1C(=O)CC(c2ccc(F)c(F)c2F)CC1=O` (stereo not shown) [Compound 401, 2-(((2-(dimethylamino)ethyl)amino)methylene)-5-(2,3,4-trifluorophenyl) cyclohexane-1,3-dione], less than 3 µM.
The same measure, in the same setting: with `CN(C)CCNC=C1C(=O)CC(c2c(F)c(F)cc(F)c2F)CC1=O` (stereo not shown) [Compound 402, 2-(((2-(dimethylamino)ethyl)amino)methylene)-5-(2,3,5,6-tetrafluorophenyl) cyclohexane-1,3-dione] the figure was less than 3 µM; with `CC(F)(F)c1ccccc1C1CC(=O)C(=CNCCN2CCN(CCO)CC2)C(=O)C1` (stereo not shown) [Compound 404, 5-(2-(1,1-difluoroethyl)phenyl)-2-(((2-(4-(2-ethoxyl)piperazin-1-yl)ethyl)amino)methylene) cyclohexane-1,3-dione], less than 3 µM; with `O=C1CC(c2cccc3[nH]c(Br)c(Cl)c23)CC(=O)C1=CNCCN1CCN(CCO)CC1` (stereo not shown) [Compound 405, 5-(2-bromo-3-chloro-1H-indol-4-yl)-2-(((2-(4-(2-ethoxyl)piperazin-1-yl)ethyl)amino)methylene) cyclohexane-1-1,3-dione], less than 3 µM.
On to `O=C1CC(c2ccccc2-c2c(Cl)cccc2Cl)CC(=O)C1=CNCCN1CCN(CCO)CC1` (stereo not shown) [Compound 406, 5-(2′,6′-dichloro-[1,1′-biphenyl]-2-yl)-2-(((2-(4-(2-ethoxyl)piperazin-1-yl)ethyl)amino)methylene) cyclohexane-1,3-dione], for which the IC50 is less than 3 µM.
As for `O=C1CC(=Cc2ccccc2)C(=O)C1=CNCCN1CCN(CCO)CC1` [Compound 407, 4-benzylidene-2-(((2-(4-(2-ethoxyl)piperazin-1-yl)ethyl)amino)methylene) cyclopentane-1,3-dione], the IC50 lay in the range of 15 to 100 µM.
Still for that read-out and setting: with `O=C1CC(c2cccc(Cl)c2Cl)CC(=O)C1=CN1CCCCC1` (stereo not shown) [Compound 408, 5-(2,3-dichlorophenyl)-2-(piperidine-1-ylmethylene) cyclohexane-1,3-dione] the figure was 3 to 15 µM.
In the case of `CN(C)CCNC=C1C(=O)CC(c2c(Br)ccc(F)c2F)CC1=O` (stereo not shown) [Compound 409], the concentration for half-maximal inhibition (IC50) is less than 3 µM.
As for `CN(C)CCNC=C1C(=O)CC(c2c(Cl)ccc(F)c2Cl)CC1=O` (stereo not shown) [Compound 411, 5-(2,6-dichloro-3-fluorophenyl)-2-(((2-(dimethylamino)ethyl)amino)methylene) cyclohexane-1,3-dione], the IC50 is less than 3 µM.
On to `CN(C)CCNC=C1C(=O)CC(c2c(F)c(F)c(F)c(F)c2F)CC1=O` (stereo not shown) [Compound 412, 2-(((2-(dimethylamino)ethyl)amino)methylene)-5-(perfluorophenyl) cyclohexane-1,3-dione], for which the IC50 is less than 3 µM.
Turning to `CN(C)CCNC=C1C(=O)CC(c2c[nH]cc2Br)CC1=O` (stereo not shown) [Compound 413, 5-(4-bromo-1H-pyrrole-3-yl)-2-(((2-(dimethylamino)ethyl)amino)methylene) cyclohexane-1,3-dione], the IC50 was 3 to 15 µM.
Take `CN(C)CCNC=C1C(=O)CC(c2c[nH]c(-c3ccccc3)c2)CC1=O` (stereo not shown) [Compound 414, 2-(((2-(dimethylamino)ethyl)amino)methylene)-5-(5-phenyl-1H-pyrrole-3-yl)cyclohexane-1,3-dione]: the IC50 was in the range of 3 to 15 µM.
For `Cc1ccc(C2CC(=O)C(=CO)C(=O)C2)cc1` (stereo not shown) [Compound 415, 2-(hydroxymethylene)-5-(4-methylphenyl)cyclo-hexane-1,3-dione], the IC50 fell in the range of 3 to 15 µM.
For the molecule `O=C1CC(c2ccccc2F)CC(=O)C1=CO` (stereo not shown) [Compound 416, 2-(hydroxymethylene)-5-(2-fluorophenyl)cyclo-hexane-1,3-dione], the IC50 was less than 3 µM.
For the molecule `O=C1CC(c2cccc(F)c2F)CC(=O)C1=CO` (stereo not shown) [Compound 417, 2-(hydroxymethylene)-5-(2,3-difluorophenyl)cyclo-hexane-1,3-dione], the IC50 was less than 3 µM.
Take `O=C1CC(c2ccccc2Cl)CC(=O)C1=CO` (stereo not shown) [Compound 418, 2-(hydroxymethylene)-5-(2-chlorophenyl)cyclo-hexane-1,3-dione]: the IC50 was less than 3 µM.
Regarding `O=C1CC(c2cccc(Cl)c2)CC(=O)C1=CO` (stereo not shown) [Compound 419, 2-(hydroxymethylene)-5-(3-chlorophenyl)cyclo-hexane-1,3-dione], the IC50 is less than 3 µM.
With `O=C1CC(c2c(Cl)cccc2Cl)CC(=O)C1=CO` (stereo not shown) [Compound 420, 2-(hydroxymethylene)-5-(2,6-dichlorophenyl)cyclo-hexane-1,3-dione], the concentration for half-maximal inhibition (IC50) is less than 3 µM.
On to `O=C1CC(c2cccc(Cl)c2Cl)CC(=O)C1=CO` (stereo not shown) [Compound 421, 2-(hydroxymethylene)-5-(2,3-dichlorophenyl)cyclo-hexane-1,3-dione], for which the half-maximal inhibitory concentration (IC50) was less than 3 µM.
Consider `O=C1CC(c2ccccc2Br)CC(=O)C1=CO` (stereo not shown) [Compound 422, 2-(hydroxymethylene)-5-(2-bromophenyl)cyclo-hexane-1,3-dione], for which the IC50 is less than 3 µM.
Regarding `COc1ccccc1C1CC(=O)C(=CO)C(=O)C1` (stereo not shown) [Compound 423, 2-(hydroxymethylene)-5-(2-methoxyphenyl)cyclo-hexane-1,3-dione], the half-maximal inhibitory concentration (IC50) lay within 3 to 15 µM.
